From US7572765B2, “Conformationally constrained parathyroid hormone (PTH) analogs” (The General Hospital Corporation, priority 2001, dated 2009)
One block for each compound: values may come before it. Square brackets hold non-standard residues; d marks the D form. Peptide text beside a SMILES is read from it. hArg = N=C(N)NCCCC[C@H](N)C(=O)O; Aib = CC(C)(N)C(=O)O

Assays:
human P1R = target: T1, human P1R (Homo sapiens, UniProt Q03431); assay: Competition binding in HKRK-B28 cells; conditions: HKRK-B28 cells; for Binding IC50 / IC50: tracer 125I-[M]PTH(1-21)amide, 4 h at 4° C., N.B. = no binding detected at 10 μm peptide
T1 construct: expressed in transfected cells; host or cells: HKRK-B28 (porcine kidney LLC-PK1, stably transfected)
T1 sequence (Q03431 27-593): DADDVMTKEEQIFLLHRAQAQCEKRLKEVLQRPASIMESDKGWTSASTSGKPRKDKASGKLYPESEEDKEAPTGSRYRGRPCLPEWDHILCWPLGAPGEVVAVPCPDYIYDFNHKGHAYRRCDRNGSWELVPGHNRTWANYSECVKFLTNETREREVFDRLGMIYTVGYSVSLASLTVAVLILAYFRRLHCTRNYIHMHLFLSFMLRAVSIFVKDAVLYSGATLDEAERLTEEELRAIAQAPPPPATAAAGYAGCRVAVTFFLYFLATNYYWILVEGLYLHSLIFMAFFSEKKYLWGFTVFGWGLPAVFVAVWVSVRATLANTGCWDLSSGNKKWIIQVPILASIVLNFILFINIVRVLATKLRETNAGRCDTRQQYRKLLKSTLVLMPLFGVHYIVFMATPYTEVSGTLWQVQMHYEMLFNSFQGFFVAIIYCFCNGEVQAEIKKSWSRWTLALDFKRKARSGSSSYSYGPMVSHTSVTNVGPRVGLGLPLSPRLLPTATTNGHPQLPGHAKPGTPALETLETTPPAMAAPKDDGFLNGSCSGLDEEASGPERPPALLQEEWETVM
Protocol: (§1) Cell Culture. The cell line HKRK-B28 (Takasu, H., et al., J. Bone Miner. Res. 14:11-20 (1999)) was derived from the porcine kidney cell line, LLC-PK1 by stable transfection with plasmid DNA encoding the human P1R and expresses ˜280,000 receptors per cell. These cells, as well as COS-7 cells and SaOS-2-B10 cells, were cultured at […] in T-75 flasks ([…]) in Dulbecco's modified Eagle's medium (DMEM) supplemented with fetal bovine serum (10%), penicillin G (20 units/ml), streptomycin sulfate (20 μg/ml) and amphotericin B (0.05 μg/ml) in a humidified atmosphere containing 5% CO2. Stock solutions of EGTA/trypsin and antibiotics were from GIBCO; fetal bovine serum was from Hyclone Laboratories (Logan, Utah). COS-7 cells sub-cultured in 24-well plates were transfected with plasmid DNA (200 ng per well) encoding the wild-type human P1R or truncated human P1R deleted for residues (24-181) (Shimizu, M., et al., J. Biol. Chem. 275:21836-21843 (2000)) that was purified by cesium chloride/ethidium bromide density gradient centrifugation, and FuGENE 6 transfection reagent (Roche Indianapolis Ind.) according to the manufacturer's recommended procedure. All cells, in 24-well plates, were treated with fresh media and shifted to 33° C. for 12 to 24 h prior to assay.
(§2) Competition Binding. Binding reactions were performed with HKRK-B28 cells or in COS-7 cells in 24-well plates. The cells were rinsed with 0.5 mL of binding buffer, and then treated successively with 100 μL binding buffer, 100 μL of binding buffer containing various amounts of unlabeled competitor ligand, and 100 μL of binding buffer containing ca. 100,000 cpm of ^125I-[M]PTH(1-21) or ^125I-[Aib^1,3,M]PTH(1-21)} (ca. 26 fmol; final volume=300 μL). Incubations were 4 to 6 h at 4° C., at which time near equilibrium conditions were attained. Cells were then placed on ice, the binding medium was removed, and the monolayer was rinsed three times with 0.5 mL of cold binding buffer. The cells were subsequently lysed with 0.5 mL […] and counted for radioactivity. For each tracer and in each experiment, the non-specific binding was determined as the radioactivity that bound in the presence of the same unlabeled peptide at a concentration of 1 μM, and was ˜1% of total radioactivity added for each tracer. The maximum specific binding (B0) was the total radioactivity bound in the absence of competing ligand, corrected for nonspecific binding, and for each tracer, ranged from 8% to 20% of the total radioactivity added. Nonlinear regression was used to calculate binding IC50 values (see below). Scatchard transformations of homologous competition binding data derived from studies with 26 fmol of ^125I-[Aib^1,3,M]PTH(1-21) were employed for estimations of apparent equilibrium dissociation constant (kDapps) and total number of ligand binding sites (Bmax), assuming a single class of binding sites and equal affinities of the iodinated and non iodinated ligand.
Data Calculation. Calculations were performed using Microsoft® Excel. Nonlinear regression analyses of binding and cAMP dose-response data were performed using the four-parameter equation: yp=Min+[(Max−Min)/(1+(IC50/x)^slope)]. The Excel Solver function was utilized for parameter optimization, as described previously (Carter, P. H., et al., Endocrinology 140: 4972-4981 (1999); Bowen, W. P., and Jerman, J. C., Trends in Pharmacol. Sci. 16: 413-417 (1995)). Differences between paired data sets were statistically evaluated using a one-tailed Student's t-test, assuming unequal variances for the two sets.
The P1R-binding properties of these analogs were assayed in competition studies performed in […]. In previous studies, PTH(1-14) binding could not be detected using ^125I-PTH(1-34) and related N-terminally intact and relatively unmodified radioligands (Luck, M. D., et al., Molecular Endocrinology 13:670-680 (1999)). […]

[1] = target: T2, wild-type human P1R (hP1R-WT) (Homo sapiens, UniProt Q03431); assay: Competition binding in COS-7 cells expressing hP1R-WT
T2 construct: expressed in transfected cells; host or cells: COS-7 (transient, FuGENE 6)
T2 sequence (Q03431 27-593): T1 sequence (Q03431 27-593)
Protocol: as §1, §2
Data Calculation. Calculations were performed using Microsoft® Excel. Nonlinear regression analyses of binding and cAMP dose-response data were performed using the four-parameter equation: yp=Min+[(Max−Min)/(1+(IC50/x)^slope)]. […] Differences between paired data sets were statistically evaluated using a one-tailed Student's t-test, assuming unequal variances for the two sets. […]

[2] = COS-7 cells, hP1R-WT, tracer 125I-[Aib^1,3,M]PTH(1-21), N.B. = no inhibition of tracer binding

Compound: CC[C@H](C)[C@H](NC(=O)[C@H](CCC(=O)O)NC(=O)C(C)(C)NC(=O)[C@@H](NC(=O)C(C)(C)N)C(C)C)C(=O)N[C@@H](CCC(N)=O)C(=O)N[C@@H](CC(C)C)C(=O)N[C@@H](CCSC)C(=O)N[C@@H](Cc1c[nH]cn1)C(=O)N[C@@H](CCC(N)=O)C(N)=O [[Aib^1,3,M]PTH(1-10), [Aib^1,3,Gln^10]PTH(1-10)] (H-[Aib]V[Aib]EIQLMHQ-NH2)
Binding IC50 (human P1R): did not bind detachably
Binding IC50 (human P1R; M]PTH (1-10)): N.B.
Binding IC50 [1, 2]: N.B.

Compound: CC[C@H](C)[C@H](NC(=O)[C@H](CCC(=O)O)NC(=O)C(C)(C)NC(=O)[C@@H](NC(=O)C(C)(C)N)C(C)C)C(=O)N[C@@H](CCC(N)=O)C(=O)N[C@@H](CC(C)C)C(=O)N[C@@H](CCSC)C(=O)N[C@@H](Cc1c[nH]cn1)C(=O)N[C@@H](CCC(N)=O)C(=O)N[C@@H](CCCCNC(=N)N)C(=O)N[C@@H](C)C(=O)N[C@@H](CCCCN)C(=O)N[C@@H](Cc1c[nH]c2ccccc12)C(N)=O [[Aib^1,3,M]PTH(1-14), AibValAibGluIleGlnLeuMetHisGlnHarAlaLysTrp] (H-[Aib]V[Aib]EIQLMHQ[hArg]AKW-NH2)
fold improvement of apparent binding affinity relative to [M]PTH(1-14) (human P1R): 100 fold
fold improvement of apparent binding affinity relative to [M]PTH(1-14) (human P1R; listed as Aib-1,3): approximately 100 fold
IC50 (human P1R): 1.3e-07 ± 2e-08 M
binding affinity, fold stronger than [M]PTH(1-14) ([1]; P1R-WT): ~10 fold

Compound: CCCC[C@H](NC(=O)[C@H](CCCNC(=N)N)NC(=O)[C@H](CCC(=O)O)NC(=O)[C@@H](NC(=O)[C@H](CO)NC(=O)[C@H](C)NC(=O)[C@H](CC(C)C)NC(=O)[C@H](Cc1c[nH]cn1)NC(=O)[C@H](CCCCN)NC(=O)CNC(=O)[C@H](CC(C)C)NC(=O)[C@H](CC(N)=O)NC(=O)[C@H](Cc1c[nH]cn1)NC(=O)[C@H](CCCC)NC(=O)[C@H](CC(C)C)NC(=O)[C@H](CCC(N)=O)NC(=O)[C@@H](NC(=O)[C@H](CCC(=O)O)NC(=O)[C@H](CO)NC(=O)[C@@H](NC(=O)[C@H](C)N)C(C)C)[C@@H](C)CC)C(C)C)C(=O)N[C@@H](CCC(N)=O)C(=O)N[C@@H](Cc1c[nH]c2ccccc12)C(=O)N[C@@H](CC(C)C)C(=O)N[C@@H](CCCNC(=N)N)C(=O)N[C@@H](CCCCN)C(=O)N[C@@H](CCCCN)C(=O)N[C@@H](CC(C)C)C(=O)N[C@@H](CCC(N)=O)C(=O)N[C@@H](CC(=O)O)C(=O)N[C@H](C(=O)N[C@@H](Cc1c[nH]cn1)C(=O)N[C@@H](CC(N)=O)C(=O)N[C@@H](Cc1ccc(O)cc1)C(N)=O)C(C)C [PTH(1-34), [Nle^8,21, Tyr^34]PTH(1-34)amide, reference compound]
IC50 (human P1R): 1.8e-08 ± 3e-09 M

The remaining lines, values ahead:

Binding IC50 [1, 2]: N.B.
Compound: H-AVSEIQLMHNLGKH-NH2 [PTH(1-14), reference compound]

IC50 (human P1R): 9.7e-07 ± 3e-07 M
IC50 [1, 2]: 16000 nM
Compound: CC[C@H](C)[C@H](NC(=O)[C@H](CCC(=O)O)NC(=O)C(C)(C)NC(=O)[C@@H](NC(=O)C(C)(C)N)C(C)C)C(=O)N[C@@H](CCC(N)=O)C(=O)N[C@@H](CC(C)C)C(=O)N[C@@H](CCSC)C(=O)N[C@@H](Cc1c[nH]cn1)C(=O)N[C@@H](CCC(N)=O)C(=O)N[C@@H](CCCCNC(=N)N)C(N)=O [[Aib^1,3,M]PTH(1-11), AibValAibGluIleGlnLeuMetHisGlnHar] (H-[Aib]V[Aib]EIQLMHQ[hArg]-NH2)
